In patent US10258235B2, “Method and device for the assessment of bowel function” (Purdue Pharma L.P., priority 2005, dated 2019):
Values joined by “and” are separate entries in the source; they are usually repeats but may differ in a detail not shown here. Equal values may be shown once. “Also recorded” adds a separate entry of the source. Read-outs that look alike come from different tables or passages of the source.

Key:
[1] = system: patients with severe chronic pain of tumor and non-tumor origin; details: for Mean Bowel Function Score, Mean V3: end of titration visit (V3, baseline before naloxone); for mean bowel function (±SD) at Visit 4: Visit 4 (after 1 week of naloxone); for mean bowel function (±SD) at the end of the maintenance phase: PP population
Protocol: (§1) The method of the present invention and analog scales of the present invention were employed in a clinical Phase II study conducted in Europe.
(§2) For some analyses, the last observation was carried forward for those ITT subjects who discontinued after Visit 4 (ITT/LOCF). In other instances, only the available data were used (ITT non-missing).
(§3) The Per Protocol (PP) population included all randomized patients who completed the study (including the follow-up phase) without major protocol violations. […] Only deviations from the visit window of the maintenance phase visits (visit 4 and 5) were regarded as major protocol violations. Deviations from the other visits were regarded as minor protocol violations. […] 3. Primary Efficacy Variables
(§4) a) Mean Pain during the last 7 days prior to each visit, based on the patient's twice-daily assessment of pain intensity using the 0-100 numerical analogue scale (NAS) (0=no pain and 100=worst imaginable pain). Mean Pain was calculated for each study visit as the mean value of the daily mean values of all patient's diary entries from the last 7 days. b) Mean bowel function: patient's assessment, at each study visit, of bowel function during the last 7 days prior to each visit. Mean bowel function was calculated from the mean of the three 0-100 NAS scores: ease of defecation (0=easy/no difficulty, 100=severe difficulty), feeling of incomplete bowel evacuation (0=not at all, 100=very strong), and judgment of constipation (0=not at all, 100=very strong). 4. Analgesic Efficacy Results
Mean bowel function was calculated for each study visit from the mean of the three NAS values ease/difficulty of defecation, feeling of incomplete bowel evacuation and judgment of constipation.
In addition, two-sided 95% CIs (CI, confidence interval) for the difference in means between the treatment groups were provided. […] These analyses were performed for the ITT and PP populations.
The parameter estimates derived were taken to display a surface plot of the whole dose range investigated. Moreover, a contour plot of the bowel function with a granulation of 10 was performed.

[2] = system: patients with severe chronic pain of tumor and non-tumor origin; assay: Mean pain (0-100 NAS) during the last 7 days before each visit, clinical Phase II study; assay type: in vivo, human; details: for Mean Pain, Mean V5 / Mean Pain, Mean V3: NAS 0-100; for Mean Pain, Mean V3: end of titration visit (V3, baseline before naloxone)
Protocol: as §1, §2, §3, §4

For C=CCN1CC[C@]23c4c5ccc(O)c4O[C@H]2C(=O)CC[C@@]3(O)[C@H]1C5 [Naloxone, naloxone], the “Mean Bowel Function Score, Mean V5” value ([1]; ITT (non-missing), end of maintenance (V5, 4 weeks), naloxone 10 mg/day plus oxycodone 40-80 mg/day, NAS 0-100, higher = worse) was 40.3, the “Mean Bowel Function Score, Mean V5” value ([1]; ITT (non-missing), end of maintenance (V5, 4 weeks), naloxone 10 mg/day plus oxycodone 40-80 mg/day, NAS 0-100, higher = worse, listed as naloxone) was 40.3 (±23.09) and 40.3 (±23.1) and the “Mean Bowel Function Score, Mean V5” value ([1]; ITT (non-missing), end of maintenance (V5, 4 weeks), naloxone 20 mg/day plus oxycodone 40-80 mg/day, NAS 0-100, higher = worse) was 31.3. The “Mean Bowel Function Score, Mean V5” value ([1]; ITT (non-missing), end of maintenance (V5, 4 weeks), naloxone 20 mg/day plus oxycodone 40-80 mg/day, NAS 0-100, higher = worse, listed as naloxone) was 31.3 (±25.82) and 31.3 (±25.8), the “Mean Bowel Function Score, Mean V5” value ([1]; ITT (non-missing), end of maintenance (V5, 4 weeks), naloxone 40 mg/day plus oxycodone 40-80 mg/day, NAS 0-100, higher = worse) was 26.1 and the “Mean Bowel Function Score, Mean V5” value ([1]; ITT (non-missing), end of maintenance (V5, 4 weeks), naloxone 40 mg/day plus oxycodone 40-80 mg/day, NAS 0-100, higher = worse, listed as naloxone) was 26.1 (±25.08) and 26.1 (±25.1). The “Mean Bowel Function Score, Mean V3” value ([1]; ITT non-missing, naloxone 10 mg/day group, NAS 0-100, higher = worse) was 53.5, the “Mean Bowel Function Score, Mean V3” value ([1]; ITT non-missing, naloxone 20 mg/day group, NAS 0-100, higher = worse) was 51.3 and the “Mean Bowel Function Score, Mean V3” value ([1]; ITT non-missing, naloxone 40 mg/day group, NAS 0-100, higher = worse) was 48.2. For the same compound, the “Mean Bowel Function Score, Mean V5” value ([1]; ITT/LOCF, end of maintenance visit (V5), naloxone 10 mg/day plus oxycodone 40-80 mg/day) was 40.1, the “Mean Bowel Function Score, Mean V5” value ([1]; ITT/LOCF, end of maintenance visit (V5), naloxone 20 mg/day plus oxycodone 40-80 mg/day) was 33.2 and the “Mean Bowel Function Score, Mean V5” value ([1]; ITT/LOCF, end of maintenance visit (V5), naloxone 40 mg/day plus oxycodone 40-80 mg/day) was 26.5. For the same compound, the “Mean Bowel Function Score, Mean V3” value ([1]; ITT/LOCF, naloxone 10 mg/day group) was 53.6, the “Mean Bowel Function Score, Mean V3” value ([1]; ITT/LOCF, naloxone 20 mg/day group) was 49.9 and the “Mean Bowel Function Score, Mean V3” value ([1]; ITT/LOCF, naloxone 40 mg/day group) was 47.7. The “mean bowel function (±SD) at Visit 4” value ([1]; ITT, naloxone 10 mg/day) was 42.1 (±25.53), the “mean bowel function (±SD) at Visit 4” value ([1]; ITT, naloxone 20 mg/day) was 34.2 (±30.04) and the “mean bowel function (±SD) at Visit 4” value ([1]; ITT, naloxone 40 mg/day) was 27.9 (±22.68). For the same compound, the “mean bowel function (±SD) at the end of follow-up” value ([1]; ITT, end of two-week follow-up on oxycodone only, former 40 mg naloxone group) was 42.4 (±23.19), the “mean bowel function (±SD) at the end of the maintenance phase” value ([1]; naloxone 10 mg/day) was 39.4 (±23.44) and the “mean bowel function (±SD) at the end of the maintenance phase” value ([1]; naloxone 20 mg/day) was 29.8 (±29.29). The “mean bowel function (±SD) at the end of the maintenance phase” value ([1]; naloxone 40 mg/day) was 29.6 (±28.34), the “effect of adding controlled release naloxone to controlled release oxycodone on mean bowel function (in words)” value ([1]; the two higher doses of naloxone (20 mg and 40 mg)) was “statistically significant improvement in mean bowel function” and the “Mean Pain, Mean V5” value ([2]; ITT non-missing, end of maintenance visit (V5, 4 weeks), naloxone 10 mg/day plus oxycodone 40-80 mg/day) was 37.2. The “Mean Pain, Mean V5” value ([2]; ITT non-missing, end of maintenance visit (V5, 4 weeks), naloxone 20 mg/day plus oxycodone 40-80 mg/day) was 37.5, the “Mean Pain, Mean V5” value ([2]; ITT non-missing, end of maintenance visit (V5, 4 weeks), naloxone 40 mg/day plus oxycodone 40-80 mg/day) was 38.7 and the “Mean Pain, Mean V3” value ([2]; ITT non-missing, naloxone 10 mg/day group, oxycodone 40-80 mg/day) was 35.9. For the same compound, the “Mean Pain, Mean V3” value ([2]; ITT non-missing, naloxone 20 mg/day group, oxycodone 40-80 mg/day) was 39.8, the “Mean Pain, Mean V3” value ([2]; ITT non-missing, naloxone 40 mg/day group, oxycodone 40-80 mg/day) was 38.1 and the “Mean Pain, Mean V5” value ([2]; PP, end of maintenance visit (V5), naloxone 10 mg/day plus oxycodone 40-80 mg/day) was 38.8. The “Mean Pain, Mean V5” value ([2]; PP, end of maintenance visit (V5), naloxone 20 mg/day plus oxycodone 40-80 mg/day) was 36.1, the “Mean Pain, Mean V5” value ([2]; PP, end of maintenance visit (V5), naloxone 40 mg/day plus oxycodone 40-80 mg/day) was 38.7 and the “Mean Pain, Mean V3” value ([2]; PP, naloxone 10 mg/day group) was 38.0. For the same compound, the “Mean Pain, Mean V3” value ([2]; PP, naloxone 20 mg/day group) was 40.1, the “Mean Pain, Mean V3” value ([2]; PP, naloxone 40 mg/day group) was 39.0 and the “Analgesic efficacy / mean pain, active naloxone versus naloxone placebo (in words)” value ([2]; end of maintenance, naloxone 10-40 mg/day added to oxycodone 40-80 mg/day) was “did not point to a difference in analgesic efficacy; also recorded: no evidence of changes in mean pain with varying amounts of naloxone”.
